# Measurements published in US8563754B2, “Compounds, compositions and methods for preventing skin darkening” (priority 2010, dated 2013).
# Read-outs that look alike come from different tables or passages of the source.
# Tested on: cultured murine melanocytes (melan-a)
# Assay: Melanin assay in cultured murine melanocytes (melan-a)
# Format: cell-based
# Conditions: for activity at 1 µM / activity at 5 µM: Mus musculus; for activity at 1 µM: read-out: % of control melanin remaining after treatment @ 1 μM; for activity at 5 µM: read-out: % of control melanin remaining after treatment @ 5 μM; for ability to block melanin accumulation: cells treated with 1 and 5 uM test compound versus carrier (DMSO) only
# Description: The Spectrum Collection library consisting of 2000 drug compounds or natural products represents a source for the identification of compounds useful in the present invention. The library may be screened to identify novel pigmentation inhibitors in cultured murine melanocytes (melan-a). Compounds are dissolved in dimethylsulfoxide (DMSO) to a final concentration of 10 mM. Screening is performed with cultured melanocytes in 24-well plates followed by melanin assay (see below). A minimum change of 50% in melanin formation is established as significant for a pigmentation inhibitor. DMSO may be used as a negative control and the widely used depigmenting agent, hydroquinone, may be used as a positive control on every plate. Primary screening is performed at a final concentration of 1 μM and potential candidates from the primary screening are reconfirmed in duplicate at final concentrations of 1 and 5 μM.
# Melan-a cells are plated at 5×10^4 cells per well in 1 ml of culture media in 24-well plates the day before adding the library compounds. All compounds are added at the indicated final concentrations. Cells are harvested after 72 hours of incubation, and the melanin assay is performed.
# For the primary and secondary screening, cells were harvested and dissolved in 200 μl of 2N NaOH in 20% DMSO at 70° C. A 180-μl aliquot of the resulting solution was measured for absorbance at 490 nm.
# A series of structurally related compounds was then tested in this screen, to identify compounds that inhibit skin darkening.
# [1] = 1 μM test compound, melan-a cells, 72 hours incubation, control = DMSO carrier, absorbance at 490 nm
# [2] = 5 μM test compound, melan-a cells, 72 hours incubation, control = DMSO carrier, absorbance at 490 nm
Molecule,activity at 1 µM [1],activity at 5 µM [2],also measured
"CC(C)=CCOc1cc2oc(=O)ccc2cc1O [Compound 1, PRENYLETIN]",79%,80%,–
"C=C(C)[C@H]1COc2cc3oc(=O)ccc3cc2O1 [Compound 2, OBLIQUIN]",84%,95%,–
"CC(C)C1COc2cc3oc(=O)ccc3cc2O1 (stereo not shown) [Compound 3, DIHYDRO-OBLIQUIN]",81%,81%,–
"COc1cc2ccc(=O)oc2c(OC)c1OC [Compound 4, FRAXIDIN METHYL ETHER]",87%,95%,–
"CC1(C)C=Cc2cc3ccc(=O)oc3cc2O1 [Compound 5, XANTHYLETIN]",99%,110%,–
"CC(C)=CCOc1c2occc2cc2ccc(=O)oc12 [Compound 6, IMPERATORIN]",91%,96%,–
"COc1cc2c(cc1-c1cc3cc4ccoc4cc3oc1=O)OCO2 [Compound 7, PACHYRRHIZIN]",–,–,"activity at 1 µM (Melan-a, 72 h): 75%; activity at 5 µM (Melan-a, 72 h): 71%; ability to block melanin accumulation: robust dose dependent ability to block melanin accumulation"
"COc1ccc2ccc(=O)oc2c1 [Compound 8, HERNIARIN]",84%,81%,–
"COc1ccc(-c2c(OC)c3c(OC)c4c(cc3oc2=O)OC(C)(C)C=C4)cc1 [Compound 9, ROBUSTIC ACID METHYL ETHER]",69%,16%,ability to block melanin accumulation: robust dose dependent ability to block melanin accumulation
"COc1ccc(-c2c(O)c3c(OC)c4c(cc3oc2=O)OC(C)(C)C=C4)cc1 [Compound 10, ROBUSTIC ACID]",91%,93%,–
"COc1c(O)cc2c(-c3ccccc3)cc(=O)oc2c1OC [Compound 11, KUHLMANNIN]",81%,84%,–
"COc1cc2ccc(=O)oc2c2ccoc12 [Compound 12, SPHONDIN]",89%,101%,–
"COc1c2ccoc2c(OC)c2oc(=O)ccc12 [Compound 13, ISOPIMPINELLIN]",86%,95%,–
"COc1c(OC)c2occc2c2oc(=O)ccc12 [Compound 14, PIMPINELLIN]",76%,109%,–
"COc1cc2occc2c2oc(=O)ccc12 [Compound 15, ISOBERGAPTENE]",86%,108%,–
"COc1c(CC=C(C)C)c2c(c3oc(=O)c(-c4ccc(O)cc4)c(O)c13)C=CC(C)(C)O2 [Compound 16, SCANDENIN]",90%,64%,ability to block melanin accumulation: robust dose dependent ability to block melanin accumulation
"COc1ccc2c(C)cc(=O)oc2c1 [Compound 17, HYMECROMONE METHYL ETHER]",96%,93%,–
"COc1c2ccoc2cc2oc(=O)ccc12 [Compound 18, BERGAPTENE]",100%,93%,–
"CCOP(=S)(OCC)Oc1ccc2c(C)c(Cl)c(=O)oc2c1 [Compound 19, COUMOPHOS]",81%,48%,ability to block melanin accumulation: robust dose dependent ability to block melanin accumulation
"COc1c2occc2cc2ccc(=O)oc12 [Compound 20, METHOXSALEN, reference compound]",120%,125%,–

Molecule,activity at 1 µM [1],activity at 5 µM [2],also measured
"CO[C@@H]1[C@@H](OC(N)=O)[C@@H](O)[C@H](Oc2ccc3c(O)c(NC(=O)c4ccc(O)c(CC=C(C)C)c4)c(=O)oc3c2C)OC1(C)C [Compound 21, NOVOBIOCIN SODIUM, reference compound]",90%,94%,–
"Cc1cc2cc3c(C)cc(=O)oc3c(C)c2o1 [Compound 22, TRIOXSALEN, reference compound]",90%,118%,–
"COc1cc(OC)c2ccc(=O)oc2c1 [Compound 23, CITROPTEN]",86%,97%,–
"Cc1cc(=O)oc2cc(O)c(O)cc12 [Compound 24, 4-METHYLESCULETIN]",88%,100%,–
"O=c1ccc2cc(O)c(O)cc2o1 [Compound 25, ESCULETIN]",87%,88%,–
"O=c1ccc2cc(O[C@@H]3O[C@H](CO)[C@@H](O)[C@H](O)[C@H]3O)c(O)cc2o1 [Compound 26, AESCULIN]",70%,84%,–
"CC1(C)Oc2ccc3ccc(=O)oc3c2CC1O (stereo not shown) [Compound 27, LOMATIN]",89%,85%,–
"C/C=C(/C)C(=O)O[C@@H]1Cc2c(ccc3ccc(=O)oc23)OC1(C)C [Compound 28, SELINIDIN]",85%,82%,–
"C/C=C(\C)C(=O)O[C@@H]1c2c(ccc3ccc(=O)oc23)OC(C)(C)[C@@H]1OC(C)=O [Compound 29, PTERYXIN]",93%,101%,–
"CC(=O)O[C@@H]1c2c(ccc3ccc(=O)oc23)OC(C)(C)[C@@H]1OC(=O)CC(C)C [Compound 30, DIHYDROSAMIDIN]",106%,88%,–
"CC(C)(O)[C@@H]1Cc2cc3ccc(=O)oc3cc2O1 [Compound 31, MARMESIN]",89%,97%,–
"CC(=O)OC(C)(C)[C@@H]1Cc2cc3ccc(=O)oc3cc2O1 [Compound 32, MARMESIN ACETATE]",77%,92%,–
"COc1c(C(C)C)oc2cc3oc(=O)ccc3cc12 [Compound 34, PEUCEDANIN]",83%,84%,–
"COc1c2c(c(CC=C(C)C)c3oc(=O)c(-c4ccc(O)cc4)c(O)c13)OC(C)(C)C=C2 [Compound 35, LO[…]]",84%,81%,–
"Cc1cc(=O)oc2c(O)c(O)ccc12 [Compound 37, 4- METHYLDAPHNETIN]",83%,88%,–
"COc1cc2ccc(=O)oc2cc1O [Compound 38, SCOPOLETIN]",77%,83%,–
"COc1cc2ccc(=O)oc2c(O)c1O [Compound 39, FRAXETIN]",84%,89%,–
DERRUSNIN [Compound 36],–,–,% of control melanin remaining after treatment @ 1 μM [1]: 81 % of control; % of control melanin remaining after treatment @ 5 μM [2]: 87 % of control
FELAMIDIN [Compound 40],–,–,% of control melanin remaining after treatment @ 1 μM [1]: 97 % of control; % of control melanin remaining after treatment @ 5 μM [2]: 88 % of control
